Read-outs that look alike come from different tables or passages of the source. Values belong to the compound of their own block, whether it stands above or below them.
Assays:
[1] = cited from earlier work
FTH ferritin [2] = target: T1, FTH ferritin (Homo sapiens, UniProt P02794); test: one-step process incorporation of small molecule agents into FTH ferritin; format: physicochemical; details: for Number of agent incorporated / Incorporation efficiency (wt %): 60 min; for Optimal pH in reaction: pH of buffer giving the largest amount of incorporation within ferritin
T1 construct: made in house; host or cells: Escherichia coli BL21 (DE3), plasmid pET20-FTH
Method: All of the reactions were performed in 0.1 mL volume. […] The absorbances were measured using spectrophotometer (DU-800, Beckman Coulter Inc.) for these solutions, and the concentration of contained protein was determined using the protein assay CBB solution (Nacalai Tesque, Inc.) as well as bovine albumin as a standard. Absorbances at 280 nm and 480 nm were measured for Rhodamine B and Congo Red. […] Then, after the absorbances were calibrated based on the absorbances that were derived from the proteins and presumed by the amount of contained protein quantified using the protein assay CBB solution, the concentrations of small molecule agents were determined based on the calibration curves obtained by the absorbances of the molecules. […] As a result, the one-step process enabled incorporating also the small molecule agents with different physical properties such as molecular weight and pKa simply and easily.

[3] = pKa of the organic compound; format: physicochemical; details: average of plural pKa values
Source text: The pKa of the organic compound can be determined by a neutralization titration method (Kagaku Binran Kiso-hen I and II (Handbook of Chemistry, basic I and II) (Ver. 4) edited by The Chemical Society of Japan, Maruzen Publishing, 1993). […] When the organic compound has a single pKa value, the value is employed as the pKa of the organic compound.

[4] = cited from earlier work; remark: listed apart in the source
FTH ferritin [5] = target: T1, FTH ferritin; test: one-step process incorporation of uranine into FTH ferritin; format: physicochemical
Method: All reactions were carried out in 1 mL volume. After the standing and centrifuging (at 15,000 rpm for one minute), the supernatant was injected into the desalting column PD-10 (Sephadex G-25 filled product, GE Healthcare Inc.) equilibrated with 10 mM Tris-HCl buffer (pH 8) to separate the protein from a reagent that was not encapsulated, for obtaining 3.5 mL of sample solution. The absorbance at 430 nm was measured using spectrophotometer (DU-800, Beckman Coulter Inc.) for the resulting solution in order to determine the concentration of uranine. The concentration of contained protein was determined using the protein assay CBB solution (Nacalai Tesque, Inc.) as well as bovine albumin as a standard.

FTH ferritin [6] = target: T1, FTH ferritin; test: disassembly-reassembly process incorporation of uranine into FTH ferritin; format: physicochemical
Method: As a control, uranine was incorporated into ferritin in the disassembly-reassembly process. […] Then, 10 μL of 1 M Tris-HCl buffer (pH 9.0) was added for neutralization, and the resulting solution was left to stand for 15 minutes at room temperature. After the standing, 0.5 mL of water was added. After the resulting solution was centrifuged (at 15,000 rpm for one minute), the supernatant was injected into the desalting column PD-10 (Sephadex G-25 filled product, GE Healthcare Inc.) equilibrated with 10 mM Tris-HCl buffer (pH 8) to separate the protein from a reagent that was not encapsulated. Whole amount (3.5 mL) of the resulting solution was concentrated to 0.1 mL by centrifugal ultrafiltration using Vivaspin 20-100K (GE Healthcare Inc.).

T1 sequence (P02794 whole entry): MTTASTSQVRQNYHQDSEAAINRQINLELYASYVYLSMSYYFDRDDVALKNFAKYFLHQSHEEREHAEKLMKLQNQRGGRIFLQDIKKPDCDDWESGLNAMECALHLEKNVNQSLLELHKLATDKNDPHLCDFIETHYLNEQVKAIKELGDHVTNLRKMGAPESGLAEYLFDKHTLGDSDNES

Number of agent incorporated (FTH ferritin [2]; pH 4, 40° C.): 6.4
Number of agent incorporated (FTH ferritin [2]; pH 6, 40° C.): 6.5
Number of agent incorporated (FTH ferritin [2]; pH 8, 40° C.): 6.4
Number of agent incorporated (FTH ferritin [2]; pH 10, 40° C.): 7.7
Optimal pH in reaction (FTH ferritin [2]): 10
Compound: Cc1cc2nc3c(=O)[nH]c(=O)nc-3n(C[C@H](O)[C@H](O)[C@H](O)CO)c2cc1C [Riboflavin]
pKa ([1]; single or first pKa value): 10.2

Incorporation efficiency (wt %) (FTH ferritin [2]; pH 4, 40° C.): 0.8 wt %
Number of agent incorporated (FTH ferritin [2]; pH 4, 40° C.): 11.6
Incorporation efficiency (wt %) (FTH ferritin [2]; pH 6, 40° C.): 0.9 wt %
Number of agent incorporated (FTH ferritin [2]; pH 6, 40° C.): 13.9
Incorporation efficiency (wt %) (FTH ferritin [2]; pH 8, 40° C.): 0.9 wt %
Number of agent incorporated (FTH ferritin [2]; pH 8, 40° C.): 13.7
Incorporation efficiency (wt %) (FTH ferritin [2]; pH 10, 40° C.): 0.9 wt %
Number of agent incorporated (FTH ferritin [2]; pH 10, 40° C.): 13.6
Optimal pH in reaction (FTH ferritin [2]): 6
Compound: Cc1ncc(C[n+]2csc(CCO)c2C)c(N)n1 [Thiamine]
pKa ([1]; single or first pKa value): 5.5
logP [4]: −4.6

More lines, now with the values behind:

Compound: CC(C)(C)NCC(O)c1cc(O)cc(O)c1 (stereo not drawn) [Terbutaline]
pKa [3]: 9.31
pKa ([1]; second pKa value): 9.76
pKa ([1]; single or first pKa value): 8.86
Incorporation efficiency (wt %) (FTH ferritin [2]; pH 4, 40° C.): 0.0 wt %
Number of agent incorporated (FTH ferritin [2]; pH 4, 40° C.): 0.0
Incorporation efficiency (wt %) (FTH ferritin [2]; pH 6, 40° C.): 0.9 wt %
Number of agent incorporated (FTH ferritin [2]; pH 6, 40° C.): 19.5
Incorporation efficiency (wt %) (FTH ferritin [2]; pH 8, 40° C.): 0.9 wt %
Number of agent incorporated (FTH ferritin [2]; pH 8, 40° C.): 21.0
Incorporation efficiency (wt %) (FTH ferritin [2]; pH 10, 20° C.): 1.4 wt %
Number of agent incorporated (FTH ferritin [2]; pH 10, 20° C.): 32.8
Incorporation efficiency (wt %) (FTH ferritin [2]; pH 10, 40° C.): 1.2 wt %
Number of agent incorporated (FTH ferritin [2]; pH 10, 40° C.): 27.1
Incorporation efficiency (wt %) (FTH ferritin [2]; pH 10, 60° C.): 5.3 wt %
Number of agent incorporated (FTH ferritin [2]; pH 10, 60° C.): 126.8
Optimal pH in reaction (FTH ferritin [2]): 10
logP [4]: 0.9

Compound: O=C([O-])c1ccccc1-c1c2ccc(=O)cc-2oc2cc([O-])ccc12.[Na+].[Na+] [Uranine]
pKa (average) [3]: 4.4
pKa ([1]; second pKa value): 4.4
pKa ([1]; single or first pKa value): 2.2
pKa ([1]; third printed pKa value): 6.7
amount of encapsulated uranine, one-step vs disassembly-reassembly process (FTH ferritin [5]): 2.7 fold
Uranine (FTH ferritin [5]; 30° C., pH 3): 71.0 µM
Uranine/FTH ferritin (FTH ferritin [5]; 30° C., pH 3): 99.2
Uranine (FTH ferritin [5]; 30° C., pH 5): 135.6 µM
Uranine/FTH ferritin (FTH ferritin [5]; 30° C., pH 5): 183.6
Uranine (FTH ferritin [5]; 30° C., pH 7): 68.5 µM
Uranine/FTH ferritin (FTH ferritin [5]; 30° C., pH 7): 90.0
Uranine (FTH ferritin [5]; 60° C., pH 3): 198.9 µM
Uranine/FTH ferritin (FTH ferritin [5]; 60° C., pH 3): 267.5
Uranine (FTH ferritin [5]; 60° C., pH 5): 201.4 µM
Uranine/FTH ferritin (FTH ferritin [5]; 60° C., pH 5): 265.3
Uranine (FTH ferritin [5]; 60° C., pH 7): 93.4 µM
Uranine/FTH ferritin (FTH ferritin [5]; 60° C., pH 7): 137.7
optimum value of the reaction pH presumed from average pKa (FTH ferritin [5]; presumed from pH=2.6+0.6 pKa relation): ~5
Uranine (FTH ferritin [6]; uranine in reaction 1 mM): 864.5 µM
Uranine/FTH ferritin (FTH ferritin [6]; uranine in reaction 1 mM): 36.7
Uranine (FTH ferritin [6]; uranine in reaction 5 mM): 1186.3 µM
Uranine/FTH ferritin (FTH ferritin [6]; uranine in reaction 5 mM): 47.2
Uranine (FTH ferritin [6]; uranine in reaction 10 mM): 1382.1 µM
Uranine/FTH ferritin (FTH ferritin [6]; uranine in reaction 10 mM): 52.6
Uranine (FTH ferritin [6]; uranine in reaction 50 mM): 1764.2 µM
Uranine/FTH ferritin (FTH ferritin [6]; uranine in reaction 50 mM): 72.5
Uranine (FTH ferritin [6]; uranine in reaction 100 mM): 2106.1 µM
Uranine/FTH ferritin (FTH ferritin [6]; uranine in reaction 100 mM): 100.2
Uranine (FTH ferritin [6]; uranine in reaction 300 mM): 2405.1 µM
Uranine/FTH ferritin (FTH ferritin [6]; uranine in reaction 300 mM): 90.8

Compound: Rhodamine B
pKa ([1]; single or first pKa value): 3.1
Incorporation efficiency (wt %) (FTH ferritin [2]; pH 4, 60° C.): 0.4 wt %
Number of agent incorporated (FTH ferritin [2]; pH 4, 60° C.): 4.3
Incorporation efficiency (wt %) (FTH ferritin [2]; pH 5, 60° C.): 1.5 wt %
Number of agent incorporated (FTH ferritin [2]; pH 5, 60° C.): 16.7
Incorporation efficiency (wt %) (FTH ferritin [2]; pH 6, 60° C.): 0.3 wt %
Number of agent incorporated (FTH ferritin [2]; pH 6, 60° C.): 3.5
Incorporation efficiency (wt %) (FTH ferritin [2]; pH 7, 60° C.): 0.2 wt %
Number of agent incorporated (FTH ferritin [2]; pH 7, 60° C.): 2.3
Incorporation efficiency (wt %) (FTH ferritin [2]; pH 8, 20° C.): 1.0 wt %
Number of agent incorporated (FTH ferritin [2]; pH 8, 20° C.): 11.1
Incorporation efficiency (wt %) (FTH ferritin [2]; pH 8, 60° C.): 0.2 wt %
Number of agent incorporated (FTH ferritin [2]; pH 8, 60° C.): 1.8
Incorporation efficiency (wt %) (FTH ferritin [2]; pH 9, 30° C.): 0.7 wt %
Number of agent incorporated (FTH ferritin [2]; pH 9, 30° C.): 7.6
Incorporation efficiency (wt %) (FTH ferritin [2]; pH 9, 40° C.): 0.4 wt %
Number of agent incorporated (FTH ferritin [2]; pH 9, 40° C.): 3.9
Incorporation efficiency (wt %) (FTH ferritin [2]; pH 9, 50° C.): 0.2 wt %
Number of agent incorporated (FTH ferritin [2]; pH 9, 50° C.): 2.6
Incorporation efficiency (wt %) (FTH ferritin [2]; pH 9, 60° C.): 0.2 wt %
Number of agent incorporated (FTH ferritin [2]; pH 9, 60° C.): 2.5
Incorporation efficiency (wt %) (FTH ferritin [2]; pH 10, 40° C.): 0.3 wt %
Number of agent incorporated (FTH ferritin [2]; pH 10, 40° C.): 3.2
Incorporation efficiency (wt %) (FTH ferritin [2]; pH 10, 50° C.): 0.2 wt %
Number of agent incorporated (FTH ferritin [2]; pH 10, 50° C.): 2.6
Incorporation efficiency (wt %) (FTH ferritin [2]; pH 10, 60° C.): 0.6 wt %
Number of agent incorporated (FTH ferritin [2]; pH 10, 60° C.): 6.6
Optimal pH in reaction (FTH ferritin [2]): 5
logP [4]: 1.78

From US20210253651A1, “METHOD FOR PRODUCING ORGANIC COMPOUND-ENCAPSULATING FERRITIN” (Ajinomoto Co., Inc., priority 2018, published 2021)
